The results in this text go back to patent US20200278355A1, “CONJUGATED PROTEINS AND USES THEREOF” (THE SCRIPPS RESEARCH INSTITUTE, priority 2017, published 2020).

The target of one assay is T1, FLAG-NR0B1 (WT) (Homo sapiens, UniProt P51843).
T1 construct: expressed in transfected cells; host or cells: HEK-293T, transient, pRK5-based vector
The assay can be described thus: Gel-based BPK-29yne labeling of NR0B1 and competition in HEK293T cells. It is filed as cell-based. Conditions: 30 min, in-gel fluorescence. On the procedure:
(§1) 4×10^6 HEK-293T cells were seeded in poly-L-lysine coated 10 cm plates and transfected the next day with 5 μg of FLAG-NR0B1, FLAG-NR0B1-C274V, or FLAG-METAP2 cDNA in a pRK5-based expression vector. 48 h after transfection, cells were treated with indicated concentrations of BPK-29 or control compound BPK-27 for 3 h at 37° C. in DMEM containing 10% FBS and supplements as described in Cell Culture. BPK-29yne (5 μM) was then added and incubated for an additional 30 min at 37° C. FLAG immunoprecipitates were prepared as described above and following washes, the FLAG resin was resuspended in PBS (100 μL). To each sample, 12 μL of a freshly prepared “click” reagent mixture was added to conjugate the fluorophore to probe-labeled proteins. […] Samples were boiled for 5 min and proteins were resolved by SDS-PAGE (10% acrylamide), and visualized by in-gel fluorescence on a Bio-Rad ChemiDoc MP flatbed fluorescence scanner. Samples were also analyzed by immunoblotting. Recombinantly expressed FLAG-tagged protein levels were determined with the FLAG antibody (Sigma). Gel fluorescence and imaging was processed using Image Lab (v 5.2.1) software.

A further assay has as its target T2, FLAG-NR0B1-C274V (Homo sapiens, UniProt P51843, C274V).
T2 construct: expressed in transfected cells; host or cells: HEK-293T, transient, pRK5-based vector
The assay is described as follows: Gel-based BPK-29yne labeling of the NR0B1-C274V mutant in HEK293T cells. It is filed as cell-based. The following applies: 30 min, in-gel fluorescence. As to the method: as §1

SMILES strings stand for the structures.

T2 sequence (P51843 whole entry C274V): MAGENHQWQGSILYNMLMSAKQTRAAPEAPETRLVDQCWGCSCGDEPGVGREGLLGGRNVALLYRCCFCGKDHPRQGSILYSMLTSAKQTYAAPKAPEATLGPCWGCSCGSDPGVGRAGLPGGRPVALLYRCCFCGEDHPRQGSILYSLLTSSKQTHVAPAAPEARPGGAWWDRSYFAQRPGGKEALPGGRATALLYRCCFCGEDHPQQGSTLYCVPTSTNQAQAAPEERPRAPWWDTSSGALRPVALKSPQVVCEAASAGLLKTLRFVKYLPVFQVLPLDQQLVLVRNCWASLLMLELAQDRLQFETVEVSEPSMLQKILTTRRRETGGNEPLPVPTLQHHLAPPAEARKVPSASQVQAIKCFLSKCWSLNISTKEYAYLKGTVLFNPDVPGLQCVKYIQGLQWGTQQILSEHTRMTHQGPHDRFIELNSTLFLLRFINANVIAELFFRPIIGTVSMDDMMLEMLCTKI
T1 sequence (P51843 whole entry): as the sequence (P51843 whole entry C274V) above, with V274C counted along it

For `C#Cc1cccc(CN(C(=O)CCl)C2CCCN(C(=O)c3ccc(N4CCOCC4)cc3)CC2)c1` (centres unmarked) [BPK-29yne, 2-chloro-N-(3-ethynylbenzyl)-N-(1-(4-morpholinobenzoyl)azepan-4-yl)acetamide], on FLAG-NR0B1 (WT), the “BPK-29yne labeling of WT-NR0B1” value is reported as “labeled WT-NR0B1”. For the same compound, the “BPK-29yne labeling of NR0B1 C274V mutant” value at FLAG-NR0B1-C274V is given as “but not a C274V mutant”.
